Measured values published in the supplement of paper PMC8671470.

Experiments:
Experiment in all cases: cell viability (% survival relative to DMSO control); higher = less cytotoxic
Conditions in all cases: 72 h
[1] = tested on: myeloid leukemia patient primary cells Pat.13
Procedure, shortened: (§1)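 Thawed, Ficoll-purified mononuclear cells from AML or CML patients in RPMI 1640 with 10% FBS were seeded at 10,000 cells/well on 384-well plates pre-printed with 70 compounds at five tenfold concentrations, 1–10,000 nM, in duplicate, for 72 h. Viability was read by CellTiter-Glo and normalised to DMSO and 10 μM proteasome-inhibitor wells. Where given, area under the curve came from four-parameter log-logistic fits (drc, PharmacoGx R packages).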

[2] = tested on: myeloid leukemia patient primary cells Pat.6
Procedure, shortened: as §1

[3] = tested on: myeloid leukemia patient primary cells Pat.3
Procedure, shortened: as §1

[4] = tested on: myeloid leukemia patient primary cells Pat.8
Procedure, shortened: as §1

CCOC(=O)N1c2ccc(C(F)(F)F)cc2[C@@H](N(Cc2cc(C(F)(F)F)cc(C(F)(F)F)c2)C(=O)OC)C[C@H]1CC [Torcetrapib]
cell viability ([1]; 1 nM): > 100% | cell viability ([1]; 10 nM): 71.5% | cell viability ([1]; 100 nM): 92.1% | cell viability ([1]; 1000 nM): 81.1% | cell viability ([1]; 10000 nM): 48.2% | cell viability ([2]; 1 nM): 89.2% | cell viability ([2]; 10 nM): 80.7% | cell viability ([2]; 100 nM): > 100% | cell viability ([2]; 1000 nM): > 100% | cell viability ([2]; 10000 nM): 50.4% | cell viability ([3]; 1 nM): 97% | cell viability ([3]; 10 nM): 62.9% | cell viability ([3]; 100 nM): 95.2% | cell viability ([3]; 1000 nM): 88.7% | cell viability ([3]; 10000 nM): 22.4% | cell viability ([4]; 1 nM): 92.3% | cell viability ([4]; 10 nM): 84.8% | cell viability ([4]; 100 nM): 96.1% | cell viability ([4]; 1000 nM): 93.3% | cell viability ([4]; 10000 nM): 65.7%

Nc1ccn([C@@H]2O[C@H](CO)[C@@H](O)[C@@H]2O)c(=O)n1 [Cytarabine]
cell viability ([1]; 1 nM): 91.9% | cell viability ([1]; 10 nM): 68.8% | cell viability ([1]; 100 nM): 85.2% | cell viability ([1]; 1000 nM): 60.1% | cell viability ([1]; 10000 nM): 9.9% | cell viability ([2]; 1 nM): > 100% | cell viability ([2]; 10 nM): 78.9% | cell viability ([2]; 100 nM): 89.5% | cell viability ([2]; 1000 nM): 86.6% | cell viability ([2]; 10000 nM): 36.2% | cell viability ([3]; 1 nM): > 100% | cell viability ([3]; 10 nM): 39.5% | cell viability ([3]; 100 nM): 46.5% | cell viability ([3]; 1000 nM): 11.6% | cell viability ([3]; 10000 nM): 5% | cell viability ([4]; 1 nM): 90.3% | cell viability ([4]; 10 nM): 91.5% | cell viability ([4]; 100 nM): 96.1% | cell viability ([4]; 1000 nM): 89.1% | cell viability ([4]; 10000 nM): 22.4%

Cc1noc2c1-c1ccccc1C(c1ccc(Cl)cc1)=N[C@H]2CC(N)=O [CPI-0610]
cell viability ([1]; 1 nM): 90.2% | cell viability ([1]; 10 nM): 95.2% | cell viability ([1]; 100 nM): 87.3% | cell viability ([1]; 1000 nM): 52.2% | cell viability ([1]; 10000 nM): 46.9% | cell viability ([2]; 1 nM): > 100% | cell viability ([2]; 10 nM): 87.9% | cell viability ([2]; 100 nM): > 100% | cell viability ([2]; 1000 nM): 87.9% | cell viability ([2]; 10000 nM): 69.7% | cell viability ([3]; 1 nM): > 100% | cell viability ([3]; 10 nM): 79.3% | cell viability ([3]; 100 nM): 68.4% | cell viability ([3]; 1000 nM): 22.7% | cell viability ([3]; 10000 nM): 15.6% | cell viability ([4]; 1 nM): 93.5% | cell viability ([4]; 10 nM): 78.8% | cell viability ([4]; 100 nM): 96.1% | cell viability ([4]; 1000 nM): 70% | cell viability ([4]; 10000 nM): 82.7%

Clc1ccc(COC(Cn2ccnc2)c2ccc(Cl)cc2Cl)cc1 (stereo not given) [Econazole]
cell viability ([1]; 1 nM): 77.8% | cell viability ([1]; 10 nM): 95% | cell viability ([1]; 100 nM): 70.2% | cell viability ([1]; 1000 nM): 75% | cell viability ([1]; 10000 nM): 60.6% | cell viability ([2]; 1 nM): 91.4% | cell viability ([2]; 10 nM): 96% | cell viability ([2]; 100 nM): 92.2% | cell viability ([2]; 1000 nM): 84.9% | cell viability ([2]; 10000 nM): 44.9% | cell viability ([3]; 1 nM): 74.2% | cell viability ([3]; 10 nM): 89.5% | cell viability ([3]; 100 nM): 93% | cell viability ([3]; 1000 nM): 70.1% | cell viability ([3]; 10000 nM): 1.03% | cell viability ([4]; 1 nM): 93.3% | cell viability ([4]; 10 nM): 86.9% | cell viability ([4]; 100 nM): 81% | cell viability ([4]; 1000 nM): > 100% | cell viability ([4]; 10000 nM): 85.3%

COc1c(C)c2c(c(O)c1C/C=C(\C)CCC(=O)O)C(=O)OC2 [Mycophenolic acid]
cell viability ([1]; 1 nM): 61% | cell viability ([1]; 10 nM): 90.7% | cell viability ([1]; 100 nM): 73.5% | cell viability ([1]; 1000 nM): 68.1% | cell viability ([1]; 10000 nM): 63.1% | cell viability ([2]; 1 nM): 83.4% | cell viability ([2]; 10 nM): 97.6% | cell viability ([2]; 100 nM): 81.8% | cell viability ([2]; 1000 nM): 93.2% | cell viability ([2]; 10000 nM): > 100% | cell viability ([3]; 1 nM): 65.5% | cell viability ([3]; 10 nM): 81.3% | cell viability ([3]; 100 nM): 99.4% | cell viability ([3]; 1000 nM): 56.5% | cell viability ([3]; 10000 nM): 47.4% | cell viability ([4]; 1 nM): 69.4% | cell viability ([4]; 10 nM): 92.3% | cell viability ([4]; 100 nM): 75.5% | cell viability ([4]; 1000 nM): 91.8% | cell viability ([4]; 10000 nM): 43.8%

CC(Cc1ccc(O)c(O)c1)C(C)Cc1ccc(O)c(O)c1 (stereo not given) [Masoprocol]
cell viability ([1]; 1 nM): 93.2% | cell viability ([1]; 10 nM): 97.5% | cell viability ([1]; 100 nM): 98.5% | cell viability ([1]; 1000 nM): 70.5% | cell viability ([1]; 10000 nM): 56.2% | cell viability ([2]; 1 nM): 97.8% | cell viability ([2]; 10 nM): 94.2% | cell viability ([2]; 100 nM): > 100% | cell viability ([2]; 1000 nM): 72.2% | cell viability ([2]; 10000 nM): 33.9% | cell viability ([3]; 1 nM): 90.1% | cell viability ([3]; 10 nM): 91.5% | cell viability ([3]; 100 nM): 80.4% | cell viability ([3]; 1000 nM): 35.8% | cell viability ([3]; 10000 nM): 5.51% | cell viability ([4]; 1 nM): 97.6% | cell viability ([4]; 10 nM): 84.9% | cell viability ([4]; 100 nM): 95.6% | cell viability ([4]; 1000 nM): 69.7% | cell viability ([4]; 10000 nM): 6.74%

CCN(CC)CCN(Cc1ccc(-c2ccc(C(F)(F)F)cc2)cc1)C(=O)Cn1c(SCc2ccc(F)cc2)nc(=O)c2c1CCC2 [Darapladib]
cell viability ([1]; 1 nM): 74.1% | cell viability ([1]; 10 nM): 80.5% | cell viability ([1]; 100 nM): 74.2% | cell viability ([1]; 1000 nM): 71.2% | cell viability ([1]; 10000 nM): < 0% | cell viability ([2]; 1 nM): 80.4% | cell viability ([2]; 10 nM): 90% | cell viability ([2]; 100 nM): 72.6% | cell viability ([2]; 1000 nM): 79.3% | cell viability ([2]; 10000 nM): 0.0489% | cell viability ([3]; 1 nM): 81.4% | cell viability ([3]; 10 nM): 90.8% | cell viability ([3]; 100 nM): 70.5% | cell viability ([3]; 1000 nM): 54.4% | cell viability ([3]; 10000 nM): < 0% | cell viability ([4]; 1 nM): 62.6% | cell viability ([4]; 10 nM): 85.8% | cell viability ([4]; 100 nM): 77.8% | cell viability ([4]; 1000 nM): 86.2% | cell viability ([4]; 10000 nM): 1.84%

CC12CCC(O)CC1CCC1C2CCC2(C)C(C3=CC(=O)OC3)CCC12O (stereo not given) [Digitoxigenin]
cell viability ([1]; 1 nM): > 100% | cell viability ([1]; 10 nM): 64.8% | cell viability ([1]; 100 nM): 91.8% | cell viability ([1]; 1000 nM): 15% | cell viability ([1]; 10000 nM): 4.96% | cell viability ([2]; 1 nM): 99.7% | cell viability ([2]; 10 nM): 92.2% | cell viability ([2]; 100 nM): 93.7% | cell viability ([2]; 1000 nM): 39.5% | cell viability ([2]; 10000 nM): 11.2% | cell viability ([3]; 1 nM): > 100% | cell viability ([3]; 10 nM): 90% | cell viability ([3]; 100 nM): 16.6% | cell viability ([3]; 1000 nM): 0.964% | cell viability ([3]; 10000 nM): 1.87% | cell viability ([4]; 1 nM): 91.6% | cell viability ([4]; 10 nM): 89% | cell viability ([4]; 100 nM): 78.4% | cell viability ([4]; 1000 nM): 7.34% | cell viability ([4]; 10000 nM): 2.31%

Sc1ncnc2nc[nH]c12 [6-mercaptopurine]
cell viability ([1]; 1 nM): 79.6% | cell viability ([1]; 10 nM): 88.3% | cell viability ([1]; 100 nM): 84.9% | cell viability ([1]; 1000 nM): 84.9% | cell viability ([1]; 10000 nM): 93.2% | cell viability ([2]; 1 nM): 89.3% | cell viability ([2]; 10 nM): > 100% | cell viability ([2]; 100 nM): 99.8% | cell viability ([2]; 1000 nM): 88.3% | cell viability ([2]; 10000 nM): 97.9% | cell viability ([3]; 1 nM): 94.8% | cell viability ([3]; 10 nM): 97.6% | cell viability ([3]; 100 nM): 44.2% | cell viability ([3]; 1000 nM): 35.1% | cell viability ([3]; 10000 nM): 16.3% | cell viability ([4]; 1 nM): 80.3% | cell viability ([4]; 10 nM): > 100% | cell viability ([4]; 100 nM): 86.2% | cell viability ([4]; 1000 nM): 75.1% | cell viability ([4]; 10000 nM): 73%

C[C@]12O[C@H](C[C@]1(O)CO)n1c3ccccc3c3c4c(c5c6ccccc6n2c5c31)CNC4=O [Lestaurtinib]
cell viability ([1]; 1 nM): 89% | cell viability ([1]; 10 nM): 46.6% | cell viability ([1]; 100 nM): 48.2% | cell viability ([1]; 1000 nM): 57.7% | cell viability ([1]; 10000 nM): 1.29% | cell viability ([2]; 1 nM): 87.2% | cell viability ([2]; 10 nM): 66.8% | cell viability ([2]; 100 nM): 73.2% | cell viability ([2]; 1000 nM): 93.9% | cell viability ([2]; 10000 nM): 8.53% | cell viability ([3]; 1 nM): 90.1% | cell viability ([3]; 10 nM): 53% | cell viability ([3]; 100 nM): 69% | cell viability ([3]; 1000 nM): 16% | cell viability ([3]; 10000 nM): 8.21% | cell viability ([4]; 1 nM): 87.6% | cell viability ([4]; 10 nM): 75.8% | cell viability ([4]; 100 nM): 61.9% | cell viability ([4]; 1000 nM): 54.6% | cell viability ([4]; 10000 nM): 0.632%

C[C@H]1O[C@@H](O[C@H]2[C@@H](O)C[C@H](O[C@H]3[C@@H](O)C[C@H](O[C@H]4CC[C@@]5(C)[C@H](CC[C@@H]6[C@@H]5C[C@@H](O)[C@]5(C)[C@@H](C7=CC(=O)OC7)CC[C@]65O)C4)O[C@@H]3C)O[C@@H]2C)C[C@H](O)[C@@H]1O [Digoxin]
cell viability ([1]; 1 nM): 95.8% | cell viability ([1]; 10 nM): 99% | cell viability ([1]; 100 nM): 88.5% | cell viability ([1]; 1000 nM): 5.75% | cell viability ([1]; 10000 nM): 3.42% | cell viability ([2]; 1 nM): 98% | cell viability ([2]; 10 nM): 96% | cell viability ([2]; 100 nM): 87% | cell viability ([2]; 1000 nM): 25.4% | cell viability ([2]; 10000 nM): 6.2% | cell viability ([3]; 1 nM): 94.1% | cell viability ([3]; 10 nM): 81.3% | cell viability ([3]; 100 nM): 11.5% | cell viability ([3]; 1000 nM): 2.91% | cell viability ([3]; 10000 nM): 1.13% | cell viability ([4]; 1 nM): 84.6% | cell viability ([4]; 10 nM): 96.1% | cell viability ([4]; 100 nM): 67.2% | cell viability ([4]; 1000 nM): 6.59% | cell viability ([4]; 10000 nM): 5.15%
